# Measured values as given in paper PMC2854724, “In Vitro Screening of Environmental Chemicals for Targeted Testing Prioritization: The ToxCast Project” (Environmental Health Perspectives, 2009).
# Legend:
# [1] = test system: HepG2 (hepatocellular carcinoma cell line G2); assay: HepG2 high-content cell-imaging assays (mitochondrial poison); type: cell-based, human
# Description: (§1) There are 467 cell-free or cell-based assays.
# PPARα = target: T1, PPARα (Homo sapiens, UniProt Q07869); assay: PPARα assays
# T1 sequence (Q07869 1-468): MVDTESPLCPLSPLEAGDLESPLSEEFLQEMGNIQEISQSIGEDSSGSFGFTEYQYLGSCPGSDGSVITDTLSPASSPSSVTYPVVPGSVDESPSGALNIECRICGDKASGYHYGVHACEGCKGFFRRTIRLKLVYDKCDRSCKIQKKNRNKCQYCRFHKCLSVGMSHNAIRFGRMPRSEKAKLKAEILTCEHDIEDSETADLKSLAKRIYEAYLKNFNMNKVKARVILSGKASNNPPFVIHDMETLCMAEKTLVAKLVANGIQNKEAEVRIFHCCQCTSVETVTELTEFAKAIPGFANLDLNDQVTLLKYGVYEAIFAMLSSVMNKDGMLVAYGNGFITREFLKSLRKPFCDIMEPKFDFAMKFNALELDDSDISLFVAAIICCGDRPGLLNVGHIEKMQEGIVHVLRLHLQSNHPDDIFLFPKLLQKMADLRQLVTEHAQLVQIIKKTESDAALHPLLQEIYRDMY
# Description: as §1
# MMP1 = assay: Cell-based assay, perturbation of MMP1 levels
# Description: as §1
# PPARγ = target: T2, PPARγ (Homo sapiens, UniProt P37231); assay: PPARγ assays
# T2 sequence (P37231 1-505): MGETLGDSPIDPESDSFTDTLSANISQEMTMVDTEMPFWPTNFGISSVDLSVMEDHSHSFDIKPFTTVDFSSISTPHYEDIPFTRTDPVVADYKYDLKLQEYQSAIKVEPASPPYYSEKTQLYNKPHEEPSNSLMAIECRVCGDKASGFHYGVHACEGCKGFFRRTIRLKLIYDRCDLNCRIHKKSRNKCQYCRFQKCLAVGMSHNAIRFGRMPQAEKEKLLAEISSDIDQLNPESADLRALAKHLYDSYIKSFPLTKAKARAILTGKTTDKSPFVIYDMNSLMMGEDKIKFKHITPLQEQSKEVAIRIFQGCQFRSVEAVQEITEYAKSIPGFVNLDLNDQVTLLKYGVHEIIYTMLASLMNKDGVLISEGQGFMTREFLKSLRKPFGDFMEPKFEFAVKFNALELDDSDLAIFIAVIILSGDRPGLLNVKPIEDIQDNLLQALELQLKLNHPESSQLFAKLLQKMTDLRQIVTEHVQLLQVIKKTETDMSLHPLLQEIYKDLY
# Description: We screened the chemical library using nine separate assay technologies, with assays run in concentration–response format and in some cases with multiple time points. Assays encompass both direct, primary interactions between chemicals and molecular targets and downstream cellular events such as gene expression. […] There are 467 cell-free or cell-based assays. Assay sets include biochemical HTS and cell-based HTS assays measuring direct molecular interactions with specific protein targets; high-content cell-imaging assays measuring complex cellular phenotypes; a multiplexed gene expression assay for xenobiotic metabolizing enzymes and transporters in human primary hepatocytes; multiplexed transcription factor reporter assays; multiplexed biological activity profiling assays measuring biomarkers in a variety of human primary cell cocultures; assays measuring effects of phase I and II xenobiotic metabolizing enzyme (XMEs) on cytotoxicity; an HTS genotoxicity assay; and a real-time cellular impedance assay that measures the kinetics of cell growth and changes in morphology. For all cell-based assays, time points were selected on the basis of studies conducted during the assay development and were considered optimal for the end point being evaluated.
# A total of 624 in vitro assay end points (including multiple time points) were measured for each chemical, generating > 200,000 concentration responses. […] In all cases we report a characteristic micromolar concentration for each chemical–assay combination.
# [2] = target: matrix metalloproteinase (MMP)3 (Homo sapiens, UniProt P08254); assay: Cell-free HTS assay, direct interaction with MMP3; type: biochemical
# matrix metalloproteinase (MMP)3, sequence (P08254 100-477): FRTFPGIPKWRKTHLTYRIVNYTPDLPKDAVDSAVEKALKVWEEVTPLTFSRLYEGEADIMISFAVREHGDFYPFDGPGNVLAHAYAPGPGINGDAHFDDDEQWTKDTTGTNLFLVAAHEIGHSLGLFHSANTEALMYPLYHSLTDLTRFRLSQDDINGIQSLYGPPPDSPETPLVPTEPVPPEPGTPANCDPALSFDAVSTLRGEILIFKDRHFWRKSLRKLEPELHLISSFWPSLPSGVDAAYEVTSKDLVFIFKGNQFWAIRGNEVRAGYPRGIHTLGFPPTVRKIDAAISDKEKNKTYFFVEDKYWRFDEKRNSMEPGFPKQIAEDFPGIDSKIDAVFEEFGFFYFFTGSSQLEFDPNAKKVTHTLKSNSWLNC
# Description: as §1
# MMP13 = MMP13 (Homo sapiens, UniProt P45452); assay: Cell-free HTS assay, direct interaction with MMP13; type: biochemical
# Description: as §1
# MMP9 = assay: Cell-based assay, perturbation of MMP9 levels
# Description: as §1
Structure (SMILES),Mitochondrial poison activity in HepG2 high-content cell imaging [1],Activity in PPARα assays (PPARα),Activity in PPARγ assays (PPARγ),further results
CO/C=C(/C(=O)OC)c1ccccc1Oc1cc(Oc2ccccc2C#N)ncn1 [Azoxystrobin],active mitochondrial poisons,–,–,–
"O=C(O)C(F)(F)C(F)(F)C(F)(F)C(F)(F)C(F)(F)C(F)(F)C(F)(F)F [PFOA, perfluorooctanoic acid]",–,active,–,–
"O=S(=O)(O)C(F)(F)C(F)(F)C(F)(F)C(F)(F)C(F)(F)C(F)(F)C(F)(F)C(F)(F)F [PFOS, perfluorooctane sulfonic acid]",–,all but PFOS were also active,positive,AC50 (MMP1): 13.3 µM; AC50 [2]: 14.6 µM; AC50 (MMP13): 32.4 µM; AC50 (MMP9): 4.4 µM
CCCCC(CC)COC(=O)c1ccccc1C(=O)OCC(CC)CCCC (centres unmarked) [diethylhexyl phthalate],–,active,positive,–
CO/N=C(/C1=NOCCO1)c1ccccc1Oc1ncnc(Oc2ccccc2Cl)c1F [fluoxastrobin],active mitochondrial poisons,–,–,–
CCOC(=O)C(C)OC(=O)c1cc(Oc2ccc(C(F)(F)F)cc2Cl)ccc1[N+](=O)[O-] (centres unmarked) [lactofen],–,active,positive,–
COC(=O)N(OC)c1ccccc1COc1ccn(-c2ccc(Cl)cc2)n1 [pyraclostrobin],active mitochondrial poisons,–,–,–
